Here are results for 26 compounds from paper PMC3423427, “Design and Synthesis of Potent N-Acylethanolamine-hydrolyzing Acid Amidase (NAAA) Inhibitor as Anti-Inflammatory Compounds” (PLoS ONE, 2012).

SMILES strings stand for the structures.

For orientation: IC50 means the concentration at which inhibition is half-maximal. The term melting point denotes the temperature of the solid-liquid transition.

The target of one data set is T1, rat NAAA (Rattus norvegicus, UniProt Q5KTC7).
T1 construct: made in house; host or cells: HEK293 cells stably overexpressing rat NAAA (HEK293-rNAAA), a gift from D. Piomelli; crude 800 x g supernatant of sonicated cells
T1 sequence (Q5KTC7 34-362): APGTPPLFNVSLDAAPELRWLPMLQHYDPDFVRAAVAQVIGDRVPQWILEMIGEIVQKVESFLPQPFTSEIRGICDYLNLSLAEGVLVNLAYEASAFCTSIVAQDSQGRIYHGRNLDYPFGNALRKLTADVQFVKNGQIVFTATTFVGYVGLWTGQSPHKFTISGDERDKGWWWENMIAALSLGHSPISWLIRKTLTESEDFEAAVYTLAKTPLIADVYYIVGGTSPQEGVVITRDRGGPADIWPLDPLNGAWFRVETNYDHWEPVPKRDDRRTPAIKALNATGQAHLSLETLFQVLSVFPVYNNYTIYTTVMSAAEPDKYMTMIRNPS
Kind of data set: NAAA enzymatic assay (recombinant rNAAA protein, LC/MS).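 On all read-outs here: reaction product measured by LC/MS using positive APCI ionization with MRM monitoring, quantified from chromatographic peak areas.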 The data set is classed as biochemical. Particulars: for IC50: IC50 ± S.E.M., triplicate, 25 µM heptadecenoylethanolamide, pH 5.0.

In the next data set the target is T2, rat FAAH (Rattus norvegicus, UniProt P97612).
T2 construct: made in house; host or cells: HEK293 cells stably overexpressing rat FAAH (HEK293-rFAAH), a gift from D. Piomelli; crude cell extract
T2 sequence (P97612 1-579): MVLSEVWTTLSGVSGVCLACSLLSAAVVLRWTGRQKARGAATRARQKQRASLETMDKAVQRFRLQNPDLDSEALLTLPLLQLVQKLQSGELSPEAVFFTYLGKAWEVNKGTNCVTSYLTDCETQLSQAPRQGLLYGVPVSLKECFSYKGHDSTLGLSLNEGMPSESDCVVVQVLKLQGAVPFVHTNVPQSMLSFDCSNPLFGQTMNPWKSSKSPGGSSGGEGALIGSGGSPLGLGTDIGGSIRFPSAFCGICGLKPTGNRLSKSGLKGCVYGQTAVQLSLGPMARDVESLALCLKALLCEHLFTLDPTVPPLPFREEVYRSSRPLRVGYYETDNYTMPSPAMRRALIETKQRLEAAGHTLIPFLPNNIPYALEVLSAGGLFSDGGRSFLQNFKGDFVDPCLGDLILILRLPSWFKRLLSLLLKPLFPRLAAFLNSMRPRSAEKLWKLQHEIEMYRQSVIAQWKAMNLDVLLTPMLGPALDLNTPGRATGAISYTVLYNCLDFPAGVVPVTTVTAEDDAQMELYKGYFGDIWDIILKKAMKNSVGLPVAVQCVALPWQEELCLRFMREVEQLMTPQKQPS
In words: FAAH enzymatic assay (recombinant rFAAH protein, LC/MS). It counts as biochemical. The conditions noted are these: for IC50: IC50 ± S.E.M., triplicate, 25 µM anandamide, pH 8.0.

A further data set has as its system NAAA. The conditions noted are these: cited from earlier work.

Protocol for rat FAAH: (§1) HEK293-rNAAA or HEK293-rFAAH cells were harvested, washed with PBS, sonicated in 20 mM Tris-HCl (pH 7.5) containing 0.32 M sucrose, and centrifuged at 800 × g for 15 min at 4°C. The supernatants were collected and protein concentrations were measured by BCA protein assay kit (Pierce, Shanghai, China). […] The reactions were terminated by adding 0.2 mL methanol containing 1 nmol heptadecanoic acid and analyzed in LC/MS.
(§2) We use an Agilent 1200-LC system coupled to a 3200Q TRAP-MS detector equipped with an ESI interface (Agilent Technologies, Shanghai, China). […] The column temperature was set at 40°C. […] Mass spectrometer (MS) detection was ionized by positive-ion atmospheric pressure chemical ionization mode (APCI^+) and monitored in MRM mode. […] Quantifications were calculated at chromatographic peak areas by using Analyst® version 1.4.1. software (Applied Biosystems).
Protocol for rat NAAA: as §1, §2

For the compound `O=C(CCCCCCCc1ccccc1)N1CCCC1` [Compound 13, 1–(7–Phenylheptanyl)–carbonyl pyrrolidine], the IC50 was 37.9 ± 4.58 µM on rat NAAA and above 100 µM at rat FAAH.

On to `O=C(CCc1ccccc1)N1CCCC1` [Compound 8, 1–(2–Phenylethyl)–carbonyl pyrrolidine], for which the IC50 at rat NAAA and at rat FAAH was above 100 µM throughout.

For `O=C(Cc1ccc(OCc2ccccc2)cc1)N1CCCC1` [Compound 17, 1–(4–Benzyloxy)benzyl–carbonyl pyrrolidine], the IC50 on rat NAAA and on rat FAAH was above 100 µM in each case.

For the compound `O=C(Cc1ccc(-c2ccccc2)cc1)N1CCCC1` [Compound 15, 1–(4–Phenylbenzyl)–carbonyl pyrrolidine], the IC50 at rat NAAA and on rat FAAH was above 100 µM in each case.

Take `O=C(NCc1ccc(-c2ccccc2)cc1)N1CCCC1` [Compound 21, N–(Biphenyl–4–ylmethyl)pyrrolidinyl–1–carboxamide]: on rat NAAA, the “inhibition ability on NAAA activity (in words)” value is “full loss of inhibition” and the IC50 was above 100 µM. Also, at rat FAAH, the “inhibition ability on FAAH activity (in words)” value is reported as “full loss of inhibition” and the IC50 was above 100 µM.

Take `CCCCCCCCCCCCCCCC(=O)N1CCCCC1` [Compound 3, Pentadecanyl–carbonyl piperidine]: on rat NAAA, the “inhibition ability on NAAA activity (in words)” value is on record as “complete loss of the inhibition ability” and the IC50 was above 100 µM. Besides, on rat FAAH, the “inhibition ability on FAAH activity (in words)” value was “complete loss of the inhibition ability” and the IC50 was above 100 µM.

Regarding `O=C(CCCCCCc1ccccc1)N1CCCC1` [Compound 12, 1–(6–Phenylhexanyl)–carbonyl pyrrolidine], the IC50 is 12.9 ± 3.47 µM on rat NAAA and above 100 µM on rat FAAH.

For `CCCCCCCCCCCCCCCC(=O)OC1CCCC1` [Compound 4, Cyclopentyl palmitate], on rat NAAA, the “inhibition ability on NAAA activity (in words)” value is given as “complete loss of the inhibition ability” and the IC50 was above 100 µM. Moreover, on rat FAAH, the “inhibition ability on FAAH activity (in words)” value is on record as “complete loss of the inhibition ability” and the IC50 was above 100 µM.

Take `O=C(Cc1ccccc1)N1CCCC1` [Compound 7, 1–Benzyl–carbonyl pyrrolidine]: the IC50 on rat NAAA and on rat FAAH was above 100 µM in each case.

For the compound `CCCCCCCCCCCCCCCNC(=O)C1CCCCC1` [CCP, N-Cyclohexanecarbonylpentadecylamine], in the data set on NAAA, the “mode of NAAA inhibition” value was “reversible and non-competitive”.

Consider `O=C(c1ccc(-c2ccccc2)cc1)N1CCCC1` [Compound 14, 1–(Biphenyl–4–ylcarbonyl)pyrrolidine], for which the IC50 on rat NAAA and on rat FAAH was above 100 µM in each case.

Regarding `O=C(OCc1ccc(-c2ccccc2)cc1)N1CCCC1` [Compound 22, Biphenyl–4–ylmethyl pyrrolidinyl–1–carboxylate], on rat NAAA, the “inhibition ability on NAAA activity (in words)” value is reported as “full loss of inhibition” and the IC50 is above 100 µM. In addition, at rat FAAH, the “inhibition ability on FAAH activity (in words)” value is recorded as “full loss of inhibition” and the IC50 was above 100 µM.

For `O=C(CCCCc1ccccc1)N1CCCC1` [Compound 10, 1–(4–Phenylbutanyl)–carbonyl pyrrolidine], the IC50 was 38.2 ± 3.79 µM at rat NAAA and above 100 µM on rat FAAH.

For the compound `O=C(CCCc1ccccc1)N1CCCC1` [Compound 9, 1–(3–Phenylpropanyl)–carbonyl pyrrolidine], the IC50 on rat NAAA and on rat FAAH was above 100 µM throughout.

For `CCCCCCCCCCCCCCCC(=O)N1CCCC1` [Compound 1, 1–Pentadecanyl–carbonyl pyrrolidine], the IC50 at rat NAAA amounted to 25 ± 5.7 µM; at rat FAAH, 21.8 ± 4.45 µM.

The compound `O=C(NCc1ccc(-c2ccccc2)cc1)C1CCCC1` [Compound 23, 4–Phenylbenzyl cyclopentanyl carboxamide] showed a melting point of 151.8 to 154.6 °C. On rat NAAA, the “inhibition ability on NAAA activity (in words)” value is listed as “full loss of inhibition” and the IC50 was above 100 µM. Further, on rat FAAH, the “inhibition ability on FAAH activity (in words)” value was “full loss of inhibition” and the IC50 was above 100 µM.

`CCCCCCCCCCCCCCCC(=O)n1cccc1` [Compound 6, 1–Pentadecanyl–carbonyl pyrrole] came in with a melting point of 57.9 to 60.2 °C. At rat NAAA, the “inhibition ability on NAAA activity (in words)” value is given as “complete loss of the inhibition ability” and the IC50 is above 100 µM. On rat FAAH, the “inhibition ability on FAAH activity (in words)” value is on record as “complete loss of the inhibition ability” and the IC50 is above 100 µM.

In the case of `CCCCCCCCCCCCCCCC(=O)NC1CCCC1` [Compound 2, N–Cyclopentylpalmitamide], at rat NAAA, the “inhibition ability on NAAA activity (in words)” value is “complete loss of the inhibition ability” and the IC50 was above 100 µM. On rat FAAH, the “inhibition ability on FAAH activity (in words)” value is reported as “complete loss of the inhibition ability” and the IC50 was above 100 µM.

For the compound `CCCCCCCCCCCCCCCC(=O)OC1CCOC1` (stereo not drawn) [Compound 5, Tetrahydrofuran–3–yl palmitate], on rat NAAA, the “inhibition ability on NAAA activity (in words)” value was “complete loss of the inhibition ability” and the IC50 was above 100 µM. In addition, on rat FAAH, the “inhibition ability on FAAH activity (in words)” value is on record as “complete loss of the inhibition ability” and the IC50 was above 100 µM.

As for `O=C(CCc1ccc(OCc2ccccc2)cc1)N1CCCC1` [Compound 18, 1–(2–(4–Benzyloxy)phenyl)ethyl–carbonyl pyrrolidine], the half-maximal inhibitory concentration (IC50) at rat NAAA and on rat FAAH was above 100 µM each time.

As to `c1ccc(-c2ccc(CCCN3CCCC3)cc2)cc1` [Compound 25, 1–(3–Biphenyl–4–ylpropyl)pyrrolidine], at rat NAAA, the “inhibition ability on NAAA activity (in words)” value was “full loss of inhibition” and the IC50 is above 100 µM. Besides, on rat FAAH, the “inhibition ability on FAAH activity (in words)” value is given as “full loss of inhibition” and the IC50 is above 100 µM.

As to `O=C(c1ccc2ccccc2c1)N1CCCC1` [Compound 19, 1–(2–Naphthalenyl)carbonyl pyrrolidine], the half-maximal inhibitory concentration (IC50) on rat NAAA and at rat FAAH was above 100 µM throughout.

For `O=C(Cc1ccc2ccccc2c1)N1CCCC1` [Compound 20, 1–(2–Naphthalenyl)acetyl pyrrolidine], the IC50 on rat NAAA and on rat FAAH was above 100 µM in each case.

On to `O=C(OCc1ccc(-c2ccccc2)cc1)C1CCCC1` [Compound 24, 4–Phenylbenzyl cyclopentanyl carboxylate], for which, at rat NAAA, the “inhibition ability on NAAA activity (in words)” value is listed as “full loss of inhibition” and the 50% inhibitory concentration (IC50) was above 100 µM. For the same compound, at rat FAAH, the “inhibition ability on FAAH activity (in words)” value is reported as “full loss of inhibition” and the IC50 was above 100 µM.

For the compound `O=C(CCCCCc1ccccc1)N1CCCC1` [Compound 11, 1–(5–Phenylpentanyl)–carbonyl pyrrolidine], the figures for the IC50 on rat NAAA and on rat FAAH were 34.6 ± 4.82 µM and above 100 µM, respectively.

On to `O=C(CCc1ccccc1)N[C@H]1COC1=O` [(S)-OOPP, (S)-N-(2-oxo-3-oxetanyl)-3-phenylpropionamide], for which the “potency as NAAA inhibitor relative to CCP” value in the data set on NAAA was “about 10 fold”.
